Measurements taken from patent US20240400560A1, “BICYCLIC HETEROCYCLIC DERIVATIVE HAVING VIRAL GROWTH INHIBITORY ACTIVITY AND PHARMACEUTICAL COMPOSITION CONTAINING SAME” (Shionogi & Co., Ltd., priority 2021, published 2024).
Like-named read-outs stand apart in the source and are kept apart here.

Legend:
[1] = biological target: SARS-CoV-2 3CL protease (Severe acute respiratory syndrome coronavirus 2, UniProt P0DTD1); test: Inhibitory activity test against SARS-CoV-2 3CL proteases; assay type: biochemical
[2] = system: SARS-CoV-2; test: Inhibitory activity of cytopathic effect (CPE) in HEK293T/ACE2-TMPRSS2 cells; assay type: cell-based
[3] = read-out: IC50 (50% SARS-CoV-2 3CL protease inhibitory concentration)
[4] = Severe acute respiratory syndrome coronavirus 2, HEK-293T, 72 h, HEK293T/ACE2-TMPRSS2 cells, cultured 3 days, CellTiter-Glo 2.0 luminescence, read-out: EC50 (50% SARS-CoV-2 infected cell death inhibitory concentration)
[5] = Severe acute respiratory syndrome coronavirus 2, HEK-293T, 72 h, 50% SARS-CoV-2 infected cell death inhibitory concentration, HEK293T/ACE2-TMPRSS2 cells, CellTiter-Glo 2.0 after 3 days culture, read-out: EC50

| Structure (SMILES) | IC50 [1, 3] [µM] | EC50 [2, 4] [µM] | further results |
| --- | --- | --- | --- |
| COc1cc(-c2cc(C#N)ccc2Cl)cc2c1c(=O)n(-c1cnc3ccccn13)c(=O)n2Cc1cc(F)c(F)c(F)c1 [Compound I-0661] | < 0.1 | – | EC50 ([2]; HEK293T/ACE2-TMPRSS2 cells, cultured 3 days, CellTiter-Glo 2.0 luminescence, read-out: EC50 (50% SARS-CoV-2 infected cell death inhibitory concentration)): < 0.1 µM |
| COc1nc2c(=O)n(Cc3ncn(C)n3)c(=O)n(Cc3cc(Cl)c(F)cc3Cl)c2cc1-c1cc(C#N)ccc1Cl [Compound I-0551] | < 0.1 | < 0.1 | – |
| COc1nc(-c2cc(C#N)ccc2Cl)cc2c1c(=O)n(-c1cnc3cc(F)ccn13)c(=O)n2Cc1cc(F)c(F)c(F)c1 [Compound I-0672] | < 0.1 | < 0.1 | – |
| COCCN(C)c1cc2c(c(OC)n1)c(=O)n(-c1cnc3cc(F)ccn13)c(=O)n2-c1ccc(F)c(Cl)c1 [Compound I-0653] | 0.014 | – | EC50 [2, 5]: 0.0116 µM |
| COC[C@@H](C)Nc1cc2c(c(OC)n1)c(=O)n(-c1cnc3cc(F)ccn13)c(=O)n2-c1ccc(F)c(Cl)c1 [Compound I-1061] | < 0.1 | < 0.1 | – |
| COc1nc(N2CCCC2)cc2c1c(=O)n(-c1cnc3cc(F)ccn13)c(=O)n2-c1ccc(F)c(Cl)c1 [Compound I-0752] | < 0.1 | < 0.1 | – |
| COC[C@@H]1CCN(c2cc3c(c(OC)n2)c(=O)n(-c2cnc4cc(F)ccn24)c(=O)n3-c2ccc(F)c(Cl)c2)C1 [Compound I-1033] | < 0.1 | < 0.1 | – |
| Cn1cnc(Cn2c(=O)c3c4nc[nH]c4c(-c4cc(C#N)ccc4Cl)cc3n(Cc3cc(F)c(F)c(F)c3)c2=O)n1 [Compound I-0712] | 0.1 to 1 | 0.1 to 1 | – |
| O=c1c2c(=O)n(-c3cnc4cc(F)ccn34)c(=O)n(-c3ccc(F)c(Cl)c3)c2cc2n1CC[C@H]1CCCCN21 [Compound I-1063] | < 0.1 | 0.1 to 1 | – |
| N#Cc1ccc(Cl)c(-c2cc3c(c4c2C(O)CO4)c(=O)n(-c2cncc(Cl)c2)c(=O)n3Cc2cc(F)c(F)c(F)c2)c1 (stereo not drawn) [Compound I-0859] | 0.0019 | – | EC50 [2, 5]: 0.0187 µM |
| COc1nc(N2[C@@H]3COC[C@H]2C3)cc2c1c(=O)n(-c1cnc3cc(F)ccn13)c(=O)n2-c1ccc(F)c(Cl)c1 [Compound I-0755] | – | – | IC50 ([1]; IC50 (50% SARS-CoV-2 3CL protease inhibitory concentration)): 0.0056 µM; EC50 ([2]; Severe acute respiratory syndrome coronavirus 2, HEK-293T, 72 h): 0.00706 µM |
| [2H]C([2H])([2H])O[C@@H]1CCN(c2cc3c(c(OC)n2)c(=O)n(-c2cnc4cc(F)ccn24)c(=O)n3-c2ccc(F)c(C(F)(F)F)c2)C1 [Compound I-1011] | < 0.1 | < 0.1 | – |
| CCOc1nc2cc(-c3cc(OC)c4c(=O)n(Cc5ncn(C)n5)c(=O)n(Cc5cc(F)c(F)c(F)c5)c4c3)c(Cl)cc2[nH]1 [Compound I-0852] | < 0.1 | 0.1 to 1 | – |
| COc1nc(N2CC[C@@H](F)C2)cc2c1c(=O)n(-c1cnc3cc(F)ccn13)c(=O)n2Cc1cc(F)c(F)c(F)c1 [Compound I-0673] | < 0.1 | < 0.1 | – |
| COc1nc(N2CCC(n3cccn3)C2)cc2c1c(=O)n(-c1cnc3cc(F)ccn13)c(=O)n2-c1ccc(F)c(Cl)c1 (stereo not drawn) [Compound I-0975] | < 0.1 | < 0.1 | – |
| COc1nc(N2CC[C@@H](OC(F)F)C2)cc2c1c(=O)n(-c1cnc3cc(F)ccn13)c(=O)n2-c1ccc(F)c(F)c1 [Compound I-1024] | < 0.1 | < 0.1 | – |
| COc1nc(N2CC[C@@H](C(=O)N(C)C)C2)cc2c1c(=O)n(-c1cnc3cc(F)ccn13)c(=O)n2-c1ccc(F)c(Cl)c1 [Compound I-1045] | < 0.1 | < 0.1 | – |
| COc1nc2c(=O)n(Cc3ncn(C)n3)c(=O)n(Cc3cc(C#N)c(F)cc3Cl)c2cc1-c1cc(C#N)ccc1Cl [Compound I-0722] | < 0.1 | < 0.1 | – |
| Cn1cnc(Cn2c(=O)c3c4nccnc4c(N4CC[C@@H](O)C4)cc3n(Cc3cc(F)c(F)c(F)c3)c2=O)n1 (racemic) [Compound I-0552] | < 0.1 | 0.1 to 1 | – |
| COc1nc(N2CC[C@@H](O)C2)cc2c1c(=O)n(-c1cnc3cc(F)ccn13)c(=O)n2Cc1cc(F)c(F)c(F)c1 [Compound I-0730] | < 0.1 | < 0.1 | – |
| COc1nc(N2CC[C@@H](NC(C)=O)C2)cc2c1c(=O)n(-c1cnc3cc(F)ccn13)c(=O)n2-c1ccc(F)c(Cl)c1 [Compound I-1031] | < 0.1 | 0.1 to 1 | – |
| COc1nc2c(=O)n(Cc3ncn(C)n3)c(=O)n(Cc3cc(Cl)ccc3C)c2cc1-c1cc(C#N)ccc1Cl [Compound I-0717] | < 0.1 | < 0.1 | – |
| COc1nc(NC(C)C)cc2c1c(=O)n(-c1cnc3cc(F)ccn13)c(=O)n2-c1ccc(F)c(Cl)c1 [Compound I-0651] | 0.0085 | – | EC50 [2, 5]: 0.013 µM |
| Cn1cnc(Cn2c(=O)c3c4c(c(-c5cc(C#N)ccc5Cl)cc3n(Cc3cc(F)c(F)c(F)c3)c2=O)[C@H](O)CO4)n1 [Compound I-0865] | < 0.1 | 0.1 to 1 | – |
